The source of these data is US12077503B2, “Substituted cyclic amides and their use as herbicides” (FMC CORPORATION, priority 2015, dated 2024).

What all share (format): in vivo
Assay [1] relates to sedge, umbrella (small-flower umbrella sedge, Cyperus difformis). Kind of assay: Test B flooded paddy test. The conditions noted are these: Cyperus difformis, 250 g ai/ha, Flood, read-out: Sedge, Umbrella plant response rating. The method, boiled down:
(§1)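 Rating scale 0–100 (visual, vs untreated controls) after a 13–15 d greenhouse period; application to the flood layer, 3 cm above soil and maintained; plants at 2-leaf stage when treated.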

Assay [2] has as its system ducksalad (Heteranthera limosa). Kind of assay: Test B flooded paddy test. The conditions noted are these: Heteranthera limosa, 250 g ai/ha, Flood, read-out: Ducksalad plant response rating. In outline: as §1
For assay [3], the system named is barnyardgrass (Echinochloa crus-galli). Kind of assay: Test B flooded paddy test. The conditions noted are these: Echinochloa crus-galli, 250 g ai/ha, Flood, read-out: Barnyardgrass plant response rating. The method, boiled down:
as §1

The subject of assay [4] is rice (Oryra sativa). Kind of assay: Test B flooded paddy test. The conditions noted are these: Oryza sativa, 250 g ai/ha, Flood, read-out: Rice plant response rating. In outline: as §1
The subject of assay [5] is ryegrass, Italian (Italian ryegrass, Lolium multiflorum). Kind of assay: Test A preemergence. The conditions noted are these: Lolium multiflorum, pre-emergence, 240 h, preemergence, 0 to 100 scale where 0 is no effect and 100 is complete control; for pest or weed control at 125 g/ha: 125 g ai/ha. In outline:
(§2)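 Preemergence soil spray on seeded pots or post-emergence spray on 1–2 leaf plants, in loam–sand blend. Greenhouse ~10 d. Visual rating 0–100 against untreated plants.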

The subject of assay [6] is Kochia (Kochia scoparia). Kind of assay: Test A preemergence. The conditions noted are these: Bassia scoparia, pre-emergence, 240 h, preemergence; for pest or weed control at 125 g/ha: 125 g ai/ha; for pest or weed control at 500 g/ha: 500 g ai/ha. In outline:
as §2

For assay [7], the system named is pigweed (Amaranthus retroflexus). Kind of assay: Test A preemergence. The conditions noted are these: Amaranthus retroflexus, pre-emergence, 240 h, preemergence; for pest or weed control at 125 g/ha: 125 g ai/ha; for pest or weed control at 500 g/ha: 500 g ai/ha.
Assay [8] deals with ragweed (common ragweed, Ambrosia elatior). Kind of assay: Test A preemergence. The conditions noted are these: Ambrosia artemisiifolia, pre-emergence, 240 h, preemergence; for pest or weed control at 125 g/ha: 125 g ai/ha; for pest or weed control at 500 g/ha: 500 g ai/ha. The method, boiled down:
as §2

Assay [9] deals with barnyardgrass (Echinochloa crus-galli). Kind of assay: Test A preemergence. The conditions noted are these: Echinochloa crus-galli, pre-emergence, 240 h, preemergence; for pest or weed control at 125 g/ha: 125 g ai/ha; for pest or weed control at 500 g/ha: 500 g ai/ha. The method, boiled down: as §2
The test system of assay [10] is giant foxtail (Setaria faberii). Kind of assay: Test A preemergence. The conditions noted are these: Setaria faberi, pre-emergence, 240 h, preemergence; for pest or weed control at 125 g/ha: 125 g ai/ha; for pest or weed control at 500 g/ha: 500 g ai/ha. In outline: as §2
The subject of assay [11] is ryegrass, Italian (Italian ryegrass, Lolium multiflorum). Kind of assay: Test A postemergence. The conditions noted are these: Lolium multiflorum, post-emergence, 240 h, postemergence; for pest or weed control at 125 g/ha: 125 g ai/ha. In outline: as §2
For assay [12], the system named is pigweed (Amaranthus retroflexus). Kind of assay: Test A postemergence. The conditions noted are these: Amaranthus retroflexus, post-emergence, 240 h, postemergence; for pest or weed control at 125 g/ha: 125 g ai/ha. In outline: as §2
Assay [13] relates to barnyardgrass (Echinochloa crus-galli). Kind of assay: Test A postemergence. The conditions noted are these: Echinochloa crus-galli, post-emergence, 240 h, postemergence; for pest or weed control at 125 g/ha: 125 g ai/ha. The method, boiled down:
as §2

In assay [14] the test system is giant foxtail (Setaria faberii). Kind of assay: Test A postemergence. The conditions noted are these: Setaria faberi, post-emergence, 240 h, postemergence; for pest or weed control at 125 g/ha: 125 g ai/ha. In outline:
as §2

[15] abbreviates: 0 to 100 scale where 0 is no effect and 100 is complete control.
Where [16] appears, read: scale of 0 to 100 where 0 is no effect and 100 is complete control.

Read-outs that look alike come from different tables or passages of the source.

Turning to `CN1C[C@H](c2cc(F)cc(C(F)(F)F)c2)[C@@H](C(=O)Nc2cccc(F)c2F)C1=O` [Compound 1214], the pest or weed control at 250 g/ha was found to be 60% in assay [1] (setting [15]), 100% in [2] (setting [15]), 70% in assay [3] (setting [15]) and 15% in assay [4] (setting [15]). For the same compound, the pest or weed control at 125 g/ha in [5] (visual injury rating, approximately 10 d, read-out: Ryegrass, Italian plant response rating) was found to be 60%; in assay [6] (visual injury rating, 0 to 100 scale where 0 is no effect and 100 is complete control, approximately 10 d, read-out: Kochia plant response rating), 50%; in assay [7] (visual injury rating, 0 to 100 scale where 0 is no effect and 100 is complete control, approximately 10 d, read-out: Pigweed plant response rating) it was 60%; in assay [8] (visual injury rating, 0 to 100 scale where 0 is no effect and 100 is complete control, approximately 10 d, read-out: Ragweed plant response rating) it was 0%; in [9] (visual injury rating, 0 to 100 scale where 0 is no effect and 100 is complete control, approximately 10 d, read-out: Barnyardgrass plant response rating), 90%; in assay [10] (visual injury rating, 0 to 100 scale where 0 is no effect and 100 is complete control, approximately 10 d, read-out: Foxtail, Giant plant response rating), 90%. For the same compound, the pest or weed control at 125 g/ha in assay [11] (visual injury vs untreated controls after approx. 10 d, 0 = no effect, 100 = complete control, read-out: Ryegrass, Italian plant response rating (0 to 100 scale)) is 60%; in assay [12] (visual injury vs untreated controls after approx. 10 d, 0 = no effect, 100 = complete control, read-out: Pigweed plant response rating (0 to 100 scale)), 30%; in assay [13] (visual injury vs untreated controls after approx. 10 d, 0 = no effect, 100 = complete control, read-out: Barnyardgrass plant response rating (0 to 100 scale)) it was 90%; in [14] (visual injury vs untreated controls after approx. 10 d, 0 = no effect, 100 = complete control, read-out: Foxtail, Giant plant response rating (0 to 100 scale)), 90%. The pest or weed control at 500 g/ha in assay [5] (500 g ai/ha, read-out: Ryegrass, Italian plant response rating) was 90%; in [6] (0 to 100 scale where 0 is no effect and 100 is complete control, read-out: Kochia plant response rating) it was 60%; in assay [7] (0 to 100 scale where 0 is no effect and 100 is complete control, read-out: Pigweed plant response rating), 70%; in [8] (0 to 100 scale where 0 is no effect and 100 is complete control, read-out: Ragweed plant response rating), 70%; in assay [9] (0 to 100 scale where 0 is no effect and 100 is complete control, read-out: Barnyardgrass plant response rating) it was 90%; in assay [10] (0 to 100 scale where 0 is no effect and 100 is complete control, read-out: Foxtail, Giant plant response rating) it was 90%. Further, the pest or weed control at 500 g/ha in assay [11] (500 g ai/ha, 0 to 100 scale, 0 is no effect, 100 is complete control, read-out: Ryegrass, Italian plant response rating) worked out at 80%; in assay [12] (500 g ai/ha, 0 to 100 scale, 0 is no effect, 100 is complete control, read-out: Pigweed plant response rating) it was 60%; in [13] (500 g ai/ha, 0 to 100 scale, 0 is no effect, 100 is complete control, read-out: Barnyardgrass plant response rating) it was 90%; in [14] (500 g ai/ha, 0 to 100 scale, 0 is no effect, 100 is complete control, read-out: Foxtail, Giant plant response rating), 90%.
On to `CSc1ccccc1NC(=O)[C@H]1C(=S)NC[C@@H]1c1ccc(C)c(C)c1` [Compound 766], for which the pest or weed control at 250 g/ha is 60% in assay [1] (setting [16]), 85% in assay [2] (setting [16]), 0% in assay [3] (setting [16]) and 0% in assay [4] (setting [16]). Moreover, the pest or weed control at 125 g/ha amounted to 0% in [5] (visual rating after approx. 10 d, read-out: Plant response rating, Ryegrass, Italian); 0% in [6] (visual rating after approx. 10 d, 0 to 100 scale where 0 is no effect and 100 is complete control, read-out: Plant response rating, Kochia); 0% in assay [7] (visual rating after approx. 10 d, 0 to 100 scale where 0 is no effect and 100 is complete control, read-out: Plant response rating, Pigweed); 0% in assay [8] (visual rating after approx. 10 d, 0 to 100 scale where 0 is no effect and 100 is complete control, read-out: Plant response rating, Ragweed); 70% in [9] (visual rating after approx. 10 d, 0 to 100 scale where 0 is no effect and 100 is complete control, read-out: Plant response rating, Barnyardgrass); 0% in assay [10] (visual rating after approx. 10 d, 0 to 100 scale where 0 is no effect and 100 is complete control, read-out: Plant response rating, Foxtail, Giant). In addition, the pest or weed control at 125 g/ha was found to be 0% in assay [11] (visual injury after approximately 10 d, 0 to 100 scale (0 no effect, 100 complete control), read-out: Plant response rating, Ryegrass, Italian); 0% in assay [12] (visual injury after approximately 10 d, 0 to 100 scale (0 no effect, 100 complete control), read-out: Plant response rating, Pigweed); 10% in assay [13] (visual injury after approximately 10 d, 0 to 100 scale (0 no effect, 100 complete control), read-out: Plant response rating, Barnyardgrass); 0% in [14] (visual injury after approximately 10 d, 0 to 100 scale (0 no effect, 100 complete control), read-out: Plant response rating, Foxtail, Giant). Besides, the pest or weed control at 500 g/ha was 0% in [6] (0 to 100 scale, 0 = no effect, 100 = complete control, read-out: Plant response rating, Kochia); 0% in assay [7] (0 to 100 scale, 0 = no effect, 100 = complete control, read-out: Plant response rating, Pigweed); 0% in assay [8] (0 to 100 scale, 0 = no effect, 100 = complete control, read-out: Plant response rating, Ragweed); 90% in assay [9] (0 to 100 scale, 0 = no effect, 100 = complete control, read-out: Plant response rating, Barnyardgrass); 40% in assay [10] (0 to 100 scale, 0 = no effect, 100 = complete control, read-out: Plant response rating, Foxtail, Giant).
